# Assay results published in BindingDB's records for doi:10.1021/jm9903343 (Harvard Medical School, 2000).
# Experiment: Binding affinity towards Opioid receptor delta 1 by displacing the radioligand [3H]naltrindole from guinea pig brain membrane
row,SMILES,Ki
1,O=C1c2ccc(O)cc2C23CCCCC2C1N(CC1CC1)CC3 (stereo not drawn),150 nM
2,O=C1c2ccc(O)cc2C23CCCCC2C1N(CC1CCCO1)CC3 (stereo not drawn),1 nM
3,"C[C@H]1C2C(=O)c3ccc(O)cc3[C@@]1(C)CCN2CC1CCCO1 (stereo partly drawn) [8-Hydroxy-6,11-dimethyl-3-(tetrahydro-furan-2-ylmethyl)-3,4,5,6-tetrahydro-2H-2,6-methano-benzo[d]azocin-1-one]",> 100000 nM
